Reference: patent US20260109707A1, “HETEROBIFUNCTIONAL COMPOUNDS AND METHODS OF TREATING DISEASE” (Halda Therapeutics OpCo. Inc., priority 2022, published 2026)
Like-named read-outs stand apart in the source and are kept apart here.

Columns and labels:
VCaP cells = assay: Cellular growth inhibition assay for VCaP cells (CellTiter-Glo, 72 hours); assay type: cell-based, human
Description: VCaP cells were purchased from American Type Cell Culture (ATCC Cat #CRL2876) and then seeded on poly-D-lysine coated, black clear-bottom 384-well plates at 5000/well in 25 μL Dulbecco's Modified Eagle Medium (DMEM) supplemented with 10% w/w Fetal bovine serum (FBS) and 1% w/w Pen-Strep. Pen-Strep is a commercially available mixture of penicillin G and streptomycin, which is used in mammalian cell culture media to prevent bacterial contamination. Dulbecco's Modified Eagle Medium (DMEM) supplemented with 10% w/w fetal bovine serum (FBS) and 1% w/w Pen-Strep is herein referred to as Treatment Medium. Following seeding of cells in the plates, the plates were spun at 300×g for 30 seconds, then equilibrated to room temperature for 30 minutes, and then deposited in a humidified tissue culture incubator maintained at 37° C. with 5% C0-2.
(§1) At 24 hours after seeding of the cells, dilutions of test compound were prepared in DMSO and dissolved in Treatment Medium, to achieve a final DMSO concentration of 0.5% w/w, thereby providing the Test Compound Solution. A 25 μL aliquot of the Test Compound Solution was added to cells in the well plates. An equal volume of a solution containing DMSO and Treatment Medium was used as a negative control. Following treatment of cells with Test Compound Solution or said equal volume of a solution containing DMSO and Treatment Medium, the plates were spun at 300×g for 30 seconds, and then left in an incubator for 72 hours.
(§2) At the end of the treatment duration, cell viability was quantified with CellTiter-Glo 2.0 reagent (Promega Cat #G9243). For this purpose, plates were equilibrated to room temperature for 30 minutes, and then 25 μL of CellTiter-Glo 2.0 reagent was added to cells in the plate wells. Plates were then agitated on a shaker for two minutes at 500 rpm and subsequently incubated at room temperature for 10 minutes. Following incubation, the plates were spun at 3000×g for 30 seconds, then sealed with an optical adhesive cover, and luminescence readings were measured with an EnVision Plate Reader.
(§3) Data was normalized using zero luminescence for baseline. A four-parameter non-linear regression curve fit was applied to dose-response data in GraphPad Prism data analysis software to determine the half-maximal growth inhibitory concentration (GI50) for each test compound.

[1] = system: T-Rex 293 cell line SC3 cells lacking increased expression of androgen receptor protein; assay: Cellular growth inhibition assay, T-Rex 293 SC3 cells without doxycycline (CellTiter-Glo, 72 hours); assay type: cell-based; conditions: T-Rex 293 cell line SC3 cells not exposed to doxycycline (lacking increased androgen receptor expression)
Description: (§4) The following types of cells were prepared for this experiment: (i) a T-Rex 293 cell line having increased expression of androgen receptor protein due to exposure to doxycycline and (ii) a T-Rex 293 cell line lacking increased expression of androgen receptor protein. Ability of the test compounds to inhibit proliferation of the foregoing cell types was evaluated according to the procedures set forth below.
(§5) The doxycycline-inducible androgen receptor protein expressing cell line was established using the following protocol: T-Rex 293 cells were purchased from Invitrogen (Cat #R71007) and transfected using Lipofectamine 2000 with the wild-type androgen receptor protein sequence cloned into the pcDNA4/TO vector. Transfected cells were selected using 400 μg/mL Zeocin (Invitrogen Cat #R25001). Following selection, single clones were raised and maintained in Dulbecco's Modified Eagle Medium (DMEM) supplemented with 10% w/w Tetracycline-free fetal bovine serum (FBS) and 250 μg/mL Zeocin. Clones were analyzed for expression of androgen receptor protein in the presence and absence of 10 ng/mL doxycycline (Sigma Cat #D9891), and a single doxycycline-inducible clone (hereinafter “SC3”) was selected for use in downstream assays.
(§6) The SC3 cells were seeded on poly-D-lysine coated, black clear-bottom 384-well plates at 2500/well, in 25 μL Phenol Red Free Dulbecco's Modified Eagle Medium (DMEM) supplemented with 10% w/w charcoal-dextran treated fetal bovine serum (FBS) and 1% w/w pen-strep, with or without 10 ng/mL doxycycline. Pen-Strep is a commercially available mixture of penicillin G and streptomycin, which is used in mammalian cell culture media to prevent bacterial contamination. Phenol Red Free Dulbecco's Modified Eagle Medium (DMEM) supplemented with 10% w/w charcoal-dextran treated fetal bovine serum (FBS) and 1% w/w pen-strep, with or without 10 ng/mL doxycycline is herein referred to as Treatment Medium. Following seeding of cells in the plates, the plates were spun at 300×g for 30 seconds, then equilibrated to room temperature for 30 minutes, and then deposited in a humidified tissue culture incubator maintained at 37° C. with 5% CO2.
as §1, §2, §3

[2] = system: T-Rex 293 cell line SC3 cells having increased expression of androgen receptor protein due to exposure to doxycycline; assay: Cellular growth inhibition assay, T-Rex 293 SC3 cells with doxycycline (CellTiter-Glo, 72 hours); assay type: cell-based; conditions: T-Rex 293 SC3 cells with increased androgen receptor expression due to doxycycline (10 ng/mL)
Description: as §4, §5, §6, §1, §2, §3

GI50 (VCaP cells; Homo sapiens, VCaP, 72 h)	GI50 (VCaP cells)	SMILES	GI50 ([1]; 72 h)	GI50 ([2]; 72 h)	GI50 [1]	GI50 [2]
< 500 nM	–	Cc1sc2c(c1C)C(c1ccc(N3CCC(CC4CCN(c5ccc(C(=O)N[C@H]6CC[C@H](Oc7ccc(C#N)c(Cl)c7)CC6)nn5)CC4)CC3)cc1)=NC1(CC1)c1nnc(C)n1-2 [I-492]	> 3000 nM	< 500 nM	–	–
< 500 nM	–	Cc1sc2c(c1C)C(c1ccc(C3CC(N4CCN(c5ccc(C(=O)N[C@H]6CC[C@H](Oc7ccc(C#N)c(Cl)c7)CC6)nn5)CC4)C3)cc1)=N[C@@H](C)c1nnc(C)n1-2 (stereo partly drawn) [I-589]	< 500 nM	< 500 nM	–	–
–	< 500 nM	Cc1sc2c(c1C)C(c1ccc(C3CCC(CC4CCN(c5ccc(C(=O)N[C@H]6CC[C@H](Oc7ccc(C#N)c(Cl)c7)CC6)nn5)CC4)CC3)cc1)=NC1(CC1)c1nnc(C)n1-2 (stereo partly drawn) [I-757]	–	–	< 500 nM	< 500 nM
–	< 500 nM	COC[C@@H]1N=C(c2ccc(C3CCC4(CCN(c5ccc(C(=O)N[C@H]6CC[C@H](Oc7ccc(C#N)c(Cl)c7)CC6)nn5)CC4)C3)cc2)c2c(sc(C)c2C)-n2c(C)nnc21 (stereo partly drawn) [I-659]	–	–	< 500 nM	< 500 nM
< 500 nM	–	CCNC(=O)C[C@@H]1N=C(c2ccc(N3CCC(OC4CN(c5ccc(C(=O)N[C@H]6CC[C@H](Oc7ccc(C#N)c(Cl)c7)CC6)nn5)C4)CC3)cc2)c2c(sc(C)c2C)-n2c(C)nnc21 [I-58]	500 to 1500 nM	< 500 nM	–	–
> 3000 nM	–	Cc1sc2c(c1C)C(c1cccc(N3CC4(CCCN(c5ccc(C(=O)N[C@H]6CC[C@H](Oc7ccc(C#N)c(Cl)c7)CC6)nn5)C4)C3)c1)=N[C@@H](C)c1nnc(C)n1-2 [I-710]	> 3000 nM	< 500 nM	–	–
< 500 nM	–	Cc1sc2c(c1C)C(c1ccc(OCC3CCC4(CCCN(c5ccc(C(=O)N[C@H]6CC[C@H](Oc7ccc(C#N)c(Cl)c7)CC6)nn5)C4)C3)cc1)=N[C@@H](C)c1nnc(C)n1-2 (stereo partly drawn) [I-626]	< 500 nM	< 500 nM	–	–
> 3000 nM	–	Cc1sc2c(c1C)C(c1ccc(COC3CCC4(CCCN(c5ccc(C(=O)N[C@H]6CC[C@H](Oc7ccc(C#N)c(Cl)c7)CC6)nn5)C4)C3)cc1)=NC1(CC1)c1nnc(C)n1-2 (stereo partly drawn) [I-509]	–	–	> 3000 nM	< 500 nM
–	< 500 nM	Cc1sc2c(c1C)C(c1ccc(N3CCC4(CCCN(c5ccc(C(=O)N[C@H]6CC[C@H](Oc7ccc(C#N)c(Cl)c7)CC6)nn5)C4)CC3)cc1)=NC(C(F)(F)F)c1nnc(C)n1-2 (stereo partly drawn) [I-721]	> 3000 nM	–	–	< 500 nM
< 500 nM	–	Cc1sc2c(c1C)C(c1ccc(OC3CC4(C3)CC3(CCN(c5ccc(C(=O)N[C@H]6CC[C@H](Oc7ccc(C#N)c(Cl)c7)CC6)nn5)CC3)C4)cc1)=NCc1nnc(C)n1-2 [I-453]	> 3000 nM	< 500 nM	–	–
< 500 nM	–	Cc1sc2c(c1C)C(c1cccc(OC3CCC4(CCN(c5ccc(C(=O)N[C@H]6CC[C@H](Oc7ccc(C#N)c(Cl)c7)CC6)nn5)C4)C3)c1)=N[C@@H](C)c1nnc(C)n1-2 (stereo partly drawn) [I-748]	< 500 nM	< 500 nM	–	–
1500 to 3000 nM	–	COC[C@@H]1N=C(c2ccc(N3CCC4(CCCN(c5ccc(C(=O)N[C@H]6CC[C@H](Oc7ccc(C#N)c(Cl)c7)CC6)nn5)C4)CC3)cc2)c2c(sc(C)c2C)-n2c(C)nnc21 [I-568]	< 500 nM	< 500 nM	–	–
< 500 nM	–	COCC1N=C(c2ccc(C#CC3CC4(C3)CN(c3ccc(C(=O)N[C@H]5CC[C@H](Oc6ccc(C#N)c(Cl)c6)CC5)nn3)C4)cc2)c2c(sc(C)c2C)-n2c(C)nnc21 (stereo partly drawn) [I-570]	–	< 500 nM	> 3000 nM	–
–	< 500 nM	CC[C@@H]1N=C(c2ccc(C3CCC4(CCCN(c5ccc(C(=O)N[C@H]6CC[C@H](Oc7ccc(C#N)c(Cl)c7)CC6)nn5)C4)CC3)cc2)c2c(sc(C)c2C)-n2c(C)nnc21 (stereo partly drawn) [I-653]	–	–	> 3000 nM	< 500 nM
1500 to 3000 nM	–	Cc1sc2c(c1C)C(c1ccc(CC3CCC4(C3)CN(c3ccc(C(=O)N[C@H]5CC[C@H](Oc6ccc(C#N)c(Cl)c6)CC5)nn3)CCO4)cc1)=NC1(CC1)c1nnc(C)n1-2 (stereo partly drawn) [I-527]	> 3000 nM	< 500 nM	–	–
